Molecular target: T1, HGFR (Homo sapiens, UniProt P08581)
T1 construct: purchased Upstate 14-526
Assay: HGFR continuous-coupled spectrophotometric assay
Format: biochemical
Conditions: not given

T1 sequence (P08581 974-1390 limits assumed): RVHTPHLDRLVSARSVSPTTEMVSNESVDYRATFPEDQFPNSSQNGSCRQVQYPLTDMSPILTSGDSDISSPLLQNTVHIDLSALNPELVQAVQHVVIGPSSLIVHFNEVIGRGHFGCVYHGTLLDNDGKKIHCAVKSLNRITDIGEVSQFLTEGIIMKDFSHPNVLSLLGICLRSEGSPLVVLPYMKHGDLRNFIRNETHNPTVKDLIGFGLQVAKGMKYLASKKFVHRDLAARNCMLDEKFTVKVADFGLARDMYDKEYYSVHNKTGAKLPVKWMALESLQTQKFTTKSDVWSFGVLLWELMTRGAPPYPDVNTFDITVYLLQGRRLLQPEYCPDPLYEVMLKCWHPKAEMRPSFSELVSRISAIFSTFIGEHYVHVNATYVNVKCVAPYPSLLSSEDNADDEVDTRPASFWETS

Structure (SMILES) | % inhibition
Nc1ncc(-c2ccc(C(=O)N3CCC(N4CCCC4)CC3)cc2)cc1OCc1ccc(C(=O)NC2CCN(Cc3ccccc3)C2)cc1 (stereo not shown) | % inhibition = 24
Cc1noc(COc2cc(-c3ccc(C(=O)N4CCC(N5CCCC5)CC4)cc3)cnc2N)n1 | % inhibition = 11
Nc1ncc(-c2ccc(C(=O)N3CCC(N4CCCC4)CC3)cc2)cc1OCc1ccc(S(=O)(=O)N2CCOCC2)cc1 | % inhibition = 14
Nc1ncc(-c2ccc(C(=O)N3CCC(N4CCCC4)CC3)cc2)cc1OCc1ccc(S(=O)(=O)c2ccc(F)cc2)cc1 | % inhibition = 13
Nc1ncc(-c2ccc(C(=O)N3CCC(N4CCCC4)CC3)cc2)cc1OCc1cccc(-c2ccnc(Br)n2)c1 | % inhibition = 13
CC(=O)Nc1nc(COc2cc(-c3ccc(C(=O)N4CCC(N5CCCC5)CC4)cc3)cnc2N)cs1 | % inhibition = 9
CC(C)c1ccc(COc2cc(-c3ccc(C(=O)N4CCC(N5CCCC5)CC4)cc3)cnc2N)cc1 | % inhibition = 32
Nc1ncc(-c2ccc(C(=O)N3CCC(N4CCCC4)CC3)cc2)cc1OCc1ccc(C(F)(F)F)c(F)c1 | % inhibition = 24
Nc1ncc(-c2ccc(C(=O)N3CCC(N4CCCC4)CC3)cc2)cc1OCc1cccnc1 | % inhibition = 17
Nc1ncc(-c2ccc(C(=O)N3CCC(N4CCCC4)CC3)cc2)cc1OCc1cc(-c2c(Cl)cccc2Cl)no1 | % inhibition = 14
Nc1ncc(-c2ccc(C(=O)N3CCC(N4CCCC4)CC3)cc2)cc1OCc1ccc(C(=O)NCCN2CCCC2)cc1 | % inhibition = 10
Nc1ncc(-c2ccc(C(=O)N3CCC(N4CCCC4)CC3)cc2)cc1OCc1ccc(C(F)(F)F)cc1 | % inhibition = 10
Nc1ncc(-c2ccc(C(=O)N3CCC(N4CCCC4)CC3)cc2)cc1OCc1nc(-c2ccc(C(=O)N3CCCC3)cc2)no1 | % inhibition = 11
Cc1[nH]cnc1COc1cc(-c2ccc(C(=O)N3CCC(N4CCCC4)CC3)cc2)cnc1N | % inhibition = 12
Nc1ncc(-c2ccc(C(=O)N3CCC(N4CCCC4)CC3)cc2)cc1OCc1ccc2ccccc2c1Br | % inhibition = 59
Nc1ncc(-c2ccc(C(=O)N3CCC(N4CCCC4)CC3)cc2)cc1OCc1ccccc1CS(=O)(=O)c1ccccc1 | % inhibition = 11
CN(C)CCNC(=O)c1ccc(COc2cc(-c3ccc(C(=O)N4CCC(N5CCCC5)CC4)cc3)cnc2N)cc1 | % inhibition = 9
Nc1ncc(-c2ccc(C(=O)N3CCC(N4CCCC4)CC3)cc2)cc1OCc1nc(-c2ccccc2)n[nH]1 | % inhibition = 2
Nc1ncc(-c2ccc(C(=O)N3CCC(N4CCCC4)CC3)cc2)cc1OCc1nccn1Cc1ccccc1 | % inhibition = 8
Nc1ncc(-c2ccc(C(=O)N3CCC(N4CCCC4)CC3)cc2)cc1OCc1cccc(C(=O)NC2CCN(Cc3ccccc3)C2)c1 (stereo not shown) | % inhibition = 13
Cc1nc2ccc(COc3cc(-c4ccc(C(=O)N5CCC(N6CCCC6)CC5)cc4)cnc3N)cc2c(=O)[nH]1 | % inhibition = 12

Structure (SMILES) | % inhibition
Nc1ncc(-c2ccc(C(=O)N3CCC(N4CCCC4)CC3)cc2)cc1OCc1nnnn1Cc1ccccc1 | % inhibition = 19
Cc1cccc(COc2cc(-c3ccc(C(=O)N4CCC(N5CCCC5)CC4)cc3)cnc2N)c1F | % inhibition = 28
Nc1ncc(-c2ccc(C(=O)N3CCC(N4CCCC4)CC3)cc2)cc1OCc1cccc(C(=O)NCc2cccnc2)c1 | % inhibition = 14
COc1ccc(OC)c(COc2cc(-c3ccc(C(=O)N4CCC(N5CCCC5)CC4)cc3)cnc2N)c1 | % inhibition = 19
Cc1cc(C)nc(COc2cc(-c3ccc(C(=O)N4CCC(N5CCCC5)CC4)cc3)cnc2N)n1 | % inhibition = 16
Nc1ncc(-c2ccc(C(=O)N3CCC(N4CCCC4)CC3)cc2)cc1OCc1cc(Cl)ccc1Cl | % inhibition = 26
Nc1ncc(-c2ccc(C(=O)N3CCC(N4CCCC4)CC3)cc2)cc1OCc1csc2ccc(Cl)cc12 | % inhibition = 37
Nc1ncc(-c2ccc(C(=O)N3CCC(N4CCCC4)CC3)cc2)cc1OCc1ccccc1OC(F)F | % inhibition = 27
Cc1ccc(F)cc1COc1cc(-c2ccc(C(=O)N3CCC(N4CCCC4)CC3)cc2)cnc1N | % inhibition = 29
Nc1ncc(-c2ccc(C(=O)N3CCC(N4CCCC4)CC3)cc2)cc1OCc1cc(C(F)(F)F)ccc1Cl | % inhibition = 26
Nc1ncc(-c2ccc(C(=O)N3CCC(N4CCCC4)CC3)cc2)cc1OCc1cc(F)ccc1C(F)(F)F | % inhibition = 26
Nc1ncc(-c2ccc(C(=O)N3CCC(N4CCCC4)CC3)cc2)cc1OCc1ccc(F)c(F)c1 | % inhibition = 19
Nc1ncc(-c2ccc(C(=O)N3CCC(N4CCCC4)CC3)cc2)cc1OCc1cc(Br)cc(Br)c1 | % inhibition = 45
Nc1ncc(-c2ccc(C(=O)N3CCC(N4CCCC4)CC3)cc2)cc1OCc1ccc(OCc2ccccc2)cc1 | % inhibition = 49
Cc1cnccc1COc1cc(-c2ccc(C(=O)N3CCC(N4CCCC4)CC3)cc2)cnc1N | % inhibition = 11
Cc1cc(-c2onc(C)c2COc2cc(-c3ccc(C(=O)N4CCC(N5CCCC5)CC4)cc3)cnc2N)no1 | % inhibition = 22
Nc1ncc(-c2ccc(C(=O)N3CCC(N4CCCC4)CC3)cc2)cc1OCc1nc(NC2CC2)c2ccccc2n1 | % inhibition = 6
Nc1ncc(-c2ccc(C(=O)N3CCC(N4CCCC4)CC3)cc2)cc1OCc1ccc(F)cc1F | % inhibition = 18
Nc1ncc(-c2ccc(C(=O)N3CCC(N4CCCC4)CC3)cc2)cc1OCc1ccc(S(=O)(=O)Nc2ccc(F)cc2)cc1 | % inhibition = 15
COc1ccccc1-c1nc(COc2cc(-c3ccc(C(=O)N4CCC(N5CCCC5)CC4)cc3)cnc2N)c(C)o1 | % inhibition = 19

Same assay, conditions: Table 3; Ki(μM) or I(%); test concentration not given

Structure (SMILES) | I(%)
Cc1cccc(C)c1-c1cnc(N)c(OC(C)c2c(Cl)ccc(F)c2Cl)c1 (stereo not shown) [Example I-567, 3-[1-(2,6-Dichloro-fluoro-pheny)-ethoxy]-5-(2,6-dimethylphenyl)-pyridin-2-ylamine] | 0
CC(Oc1cc(-c2ccccc2C(F)(F)F)cnc1N)c1c(Cl)ccc(F)c1Cl (stereo not shown) [Example I-559, 3-[1-(2,6-Dichloro-3-fluoro-phenyl)-ethoxy]-5-(2-trifluoromethyl-phenyl)-pyridin-2-ylamine] | 4

Same assay, conditions: Table 5; percent c-MET inhibition at 50 nM

Structure (SMILES) | inhibition at 0.05 µM [%]
CC(Oc1cc(-c2ccc(C(=O)NC(C)C(O)c3ccccc3)cc2)cnc1N)c1c(Cl)ccc(F)c1Cl (stereo not shown) | 69

Same assay, conditions: Table 6; percent c-MET inhibition at 1 μM; read-out: % inhibition

Structure (SMILES) | inhibition at 1 µM [%]
CCN(CC)CC1(O)CCN(C(=O)c2cnc(N)c(OCc3c(Cl)cccc3Cl)c2)CC1 | 71
Nc1ncc(C(=O)N2CCC(O)C2)cc1OCc1c(Cl)cccc1Cl (stereo not shown) | 83
Nc1ncc(C(=O)N2CCCN(Cc3ccc(F)cc3)CC2)cc1OCc1c(Cl)cccc1Cl | 26
Nc1ncc(C(=O)N[C@@H]2c3ccccc3C[C@@H]2O)cc1OCc1c(Cl)cccc1Cl | 23
Cc1cc(CCC2COC3(CCN(C(=O)c4cnc(N)c(OCc5c(Cl)cccc5Cl)c4)CC3)C2)no1 (stereo not shown) | 19
CCCCOc1ccc(CNC(=O)c2cnc(N)c(OCc3c(Cl)cccc3Cl)c2)cc1 | 18
COc1ccc(C(CCO)NC(=O)c2cnc(N)c(OCc3c(Cl)cccc3Cl)c2)cc1 (stereo not shown) | 22
Nc1ncc(C(=O)NCc2cccc(OC(F)F)c2)cc1OCc1c(Cl)cccc1Cl | 32
Nc1ncc(C(=O)NCC(O)CN2CCC(Cc3ccccc3)CC2)cc1OCc1c(Cl)cccc1Cl (stereo not shown) | 32
CN(C)C(CNC(=O)c1cnc(N)c(OCc2c(Cl)cccc2Cl)c1)c1cccnc1 (stereo not shown) | 18
Nc1ncc(C(=O)NCCc2ccncc2)cc1OCc1c(Cl)cccc1Cl | 30
Nc1ncc(C(=O)NCC2COc3ccccc3O2)cc1OCc1c(Cl)cccc1Cl (stereo not shown) | 34
CN1CCN(CCCNC(=O)c2cnc(N)c(OCc3c(Cl)cccc3Cl)c2)CC1 | 24
Nc1ncc(C(=O)N2CCC(CO)CC2)cc1OCc1c(Cl)cccc1Cl | 43
Nc1ncc(C(=O)NC[C@H]2CC[C@H](c3nc4ccccc4[nH]3)CC2)cc1OCc1c(Cl)cccc1Cl | 38
Nc1ncc(C(=O)N2CCC3(CC2)CC(N2CCC(O)CC2)CO3)cc1OCc1c(Cl)cccc1Cl (stereo not shown) | 28
Nc1ncc(C(=O)N2CCC(O)(CN3CCCC3=O)C2)cc1OCc1c(Cl)cccc1Cl (stereo not shown) | 20
Nc1ncc(C(=O)NCc2ccccc2Br)cc1OCc1c(Cl)cccc1Cl | 36

Structure (SMILES) | inhibition at 1 µM [%]
Nc1ncc(C(=O)N2CCCC(Cc3ncccn3)C2)cc1OCc1c(Cl)cccc1Cl (stereo not shown) | 25
Cc1cc2cc(CNC(=O)c3cnc(N)c(OCc4c(Cl)cccc4Cl)c3)ccc2[nH]1 | 20
Nc1ncc(C(=O)NC(CO)Cc2ccc(Cl)cc2)cc1OCc1c(Cl)cccc1Cl (stereo not shown) | 27
Nc1ncc(C(=O)N2CCN(c3ccc(Br)cn3)CC2)cc1OCc1c(Cl)cccc1Cl | 5
Nc1ncc(C(=O)N2CCC(N3CCCCC3=O)CC2)cc1OCc1c(Cl)cccc1Cl | 26
CC(CN(C)C)NC(=O)c1cnc(N)c(OCc2c(Cl)cccc2Cl)c1 (stereo not shown) | 45
CC(C)(CO)CNC(=O)c1cnc(N)c(OCc2c(Cl)cccc2Cl)c1 | 39
Nc1ncc(C(=O)N2CCNC(=O)C2)cc1OCc1c(Cl)cccc1Cl | 22
CC(=O)NCCNC(=O)c1cnc(N)c(OCc2c(Cl)cccc2Cl)c1 | 35
Cc1nc(CCNC(=O)c2cnc(N)c(OCc3c(Cl)cccc3Cl)c2)c[nH]1 | 23
CN1CCC(N(C)C(=O)c2cnc(N)c(OCc3c(Cl)cccc3Cl)c2)C1 (stereo not shown) | 33
Nc1ncc(C(=O)NCCc2c[nH]c3ccc(O)cc23)cc1OCc1c(Cl)cccc1Cl | 29
Nc1ncc(C(=O)N2CCCCC2CCO)cc1OCc1c(Cl)cccc1Cl (stereo not shown) | 33
Nc1ncc(C(=O)NC[C@]2(O)CC[C@H](c3ccccc3)CC2)cc1OCc1c(Cl)cccc1Cl | 15
Cc1ccn2cc(CNC(=O)c3cnc(N)c(OCc4c(Cl)cccc4Cl)c3)nc2n1 | 45
Nc1ncc(C(=O)NCc2ccc(S(N)(=O)=O)cc2)cc1OCc1c(Cl)cccc1Cl | 30
Nc1ncc(C(=O)NCc2ccc[nH]c2=O)cc1OCc1c(Cl)cccc1Cl | 16
